Where “and” joins values, the source holds several entries; their conditions need not be identical. Equal entries are not always repeated.
Key:
[1] = molecular target: T1, PTP-1b (protein tyrosine phosphatase-1b) (Homo sapiens, UniProt P18031); assay: PTP-1b inhibitory activity, malachite green assay with [pTyr1146] insulin receptor substrate; assay type: biochemical; conditions: PTP-1b (Bioneer), absorbance at 620 nm; read-out: IC50 against PTP-1b
T1 construct: purchased Bioneer, Korea
T1 sequence (P18031 1-435): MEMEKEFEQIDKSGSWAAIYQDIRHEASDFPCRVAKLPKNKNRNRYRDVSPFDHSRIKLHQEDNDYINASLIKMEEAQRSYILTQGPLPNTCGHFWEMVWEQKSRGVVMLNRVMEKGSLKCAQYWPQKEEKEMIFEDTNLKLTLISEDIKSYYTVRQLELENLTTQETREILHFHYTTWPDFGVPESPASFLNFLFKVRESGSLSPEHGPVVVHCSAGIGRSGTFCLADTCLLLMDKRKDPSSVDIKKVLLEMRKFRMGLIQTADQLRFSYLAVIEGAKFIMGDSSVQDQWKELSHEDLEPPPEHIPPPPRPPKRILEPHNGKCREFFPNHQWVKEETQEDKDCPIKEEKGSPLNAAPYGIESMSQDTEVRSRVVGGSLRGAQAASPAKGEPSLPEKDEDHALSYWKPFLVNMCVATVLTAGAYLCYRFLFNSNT
Protocol: In order to analyze the PTP-1b (protein tyrosine phosphatase-1b) inhibitory activity of sodium lobarate, the activity of the enzyme was spectroscopically measured.
(§1) Specifically, to 0.5 mg/Ml of PTP-1b (Bioneer, Korea) in PTP-1b buffer (20 mM Tris-HCl, pH 8.0, 0.75 mM NaCl, 0.5 mM EDTA, 5 mM β-mercaptoethanol, 50% glycerol), 0, 1, 3, 10, 30, 100, 300, 1,000 and 3,000 nM of sodium lobarate and the substrate [pTyr1146] insulin receptor (1142-1153, Sigma, USA) were added. Each mixture was allowed to react at room temperature for 10-30 minutes, and malachite green-molybdate dye solution was added thereto and reacted at room temperature for 10 minutes. After completion between PTP-1b, sodium lobarate and the substrate, the absorbance at 620 nm was measured.
The activity of the enzyme was spectroscopically measured to analyze the protein PTP-1b inhibitory activity of Lobarin.
as §1, with “Tris-HCL,” for “Tris-HCl,”, “1000 or 3000” for “1,000 and 3,000”, “Lobarin” for “of sodium lobarate”, “of the mixtures” for “mixture”, “Lobarin” for “sodium lobarate”
The activity of the enzyme was spectroscopically measured to analyze the protein PTP-1b inhibitory activity of Lobarstin. Specifically, to 0.5 mg/Ml of PTP-1b (Bioneer, Korea) in PTP-1b buffer (20 mM Tris-HCL, pH 8.0, 0.75 mM NaCl, 0.5 mM EDTA, 5 mM β-mercaptoethanol, 50% glycerol), 0, 1, 3, 10, 30, 100, 300, 1000 or 3000 nM Lobarstin and the substrate [pTyr1146] insulin receptor (1142-1153, Sigma, USA) were added. […] After completion between PTP-1b, Lobarstin and the substrate, the absorbance at 620 nm was measured.

[2] = system: db/db mice (type 2 diabetic model animals); assay: Change in blood glucose level after intraperitoneal administration; assay type: in vivo; conditions: 10 mg/kg intraperitoneally daily; for increase in the blood glucose level compared with control group: days 0-21; for average blood glucose level: db/db mice
Protocol: (§2) Based on pre-tests, effectiveness tests and toxicity tests for sodium lobarate, dose (expressed as test compound amount (mg)/test animal's weight (kg)) was determined. To 7-week-old male db/db mice (type 2 diabetic model animals, C57/BLKS/J-db/db, the Korea Research Institute of Bioscience and Biotechnology), 200 μl of PBS for a control group and 10 mg/kg of sodium lobarate (PTP-1b activity inhibitory compound) for a test group was administered, respectively, intraperitoneally daily, and the blood glucose levels of the animals were measured twice a week.
Specifically, sodium lobarate (PTP-1b activity inhibitory compound) was administered by intraperitoneal injection to 7-week-old male db/db mice (type 2 diabetic model animals, C57/BLKS/J-db/db, the Korea Research Institute of Bioscience and Biotechnology), and the change in the blood glucose level of the animals was measured.
as §2, with “Lobarin,” for “sodium lobarate,”, “Lobarin” for “sodium lobarate (PTP-1b activity inhibitory compound)”
Specifically, Lobarin was administered by intraperitoneal injection to 7-week-old male db/db mice (type 2 diabetic model animals, C57/BLKS/J-db/db, the Korea Research Institute of Bioscience and Biotechnology), and the change in blood glucose level of the animals was measured.
as §2, with “Lobarstin,” for “sodium lobarate,”, “Lobarstin” for “sodium lobarate (PTP-1b activity inhibitory compound)”
Specifically, Lobarstin was administered by intraperitoneal injection to 7-week-old male db/db mice (type 2 diabetic model animals, C57/BLKS/J-db/db, the Korea Research Institute of Bioscience and Biotechnology), and the change in blood glucose level of the animals was measured.

| IC50 [1] | SMILES | increase in the blood glucose level compared with control group [2] | average blood glucose level ([2]; day 0) | average blood glucose level ([2]; day 3) | average blood glucose level ([2]; day 7) | average blood glucose level ([2]; day 10) | average blood glucose level ([2]; day 14) | average blood glucose level ([2]; day 17) | average blood glucose level ([2]; day 21) |
| --- | --- | --- | --- | --- | --- | --- | --- | --- | --- |
| 149 nM and 155 nM | CCCCCc1c(Oc2cc(OC)cc3c2C(=O)OC3(O)CCCC)c(O)cc(O)c1C(=O)O (stereo not drawn) [Lobarin] | less than that in the control group | 267 mg/dL | 278 mg/dL | 298 mg/dL | 315 mg/dL | 352 mg/dL | 379 mg/dL | 425 mg/dL |
| 350 nM | CCCCCc1c2c(cc(O)c1C(=O)[O-])OC(=O)c1c(cc(OC)cc1C(=O)CCCC)O2.[Na+] [sodium lobarate] | less than that in the control group | 267 mg/dL | 276 mg/dL | 378 mg/dL | 378 mg/dL | 407 mg/dL | 415 mg/dL | 459 mg/dL |
| 155 nM | CCC/C=C1/OC(=O)c2c(Oc3c(O)cc(O)c(C(=O)O)c3CCCCC)cc(OC)cc21 [Lobarstin] | less than that in the control group | 299 mg/dL |  | 259 mg/dL |  | 267 mg/dL |  | 242 mg/dL |

From patent US8846750B2, “Pharmaceutical and food compositions for preventing or treating diabetes or obesity” (Korea Ocean Research and Development Institute, priority 2010, dated 2014)
